Results taken from the supplement of paper PMC10307832.

What was measured:
Assay in all cases: relative viability (nuclei count vs DMSO), 5 days (fraction); higher = more cells survive
Tosedostat + OSI-027 = compound: CC(C)C[C@@H](C(=O)N[C@H](C(=O)OC1CCCC1)c1ccccc1)[C@H](O)C(=O)NO [Tosedostat] + COc1cccc2cc(-c3nc([C@H]4CC[C@H](C(=O)O)CC4)n4ncnc(N)c34)[nH]c12 [OSI-027] (partner 0.5 µM)
Summary of the method: (§1)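 Cells from lung cancer lines were seeded into 1536-well plates and, one day later, dosed by pin tool. Treatments were either a single drug or a fixed dose of an anchor drug with five library-drug doses (not always all listed) in √10 steps. After 5 days, nuclei were stained in a one-step fixation (final 0.05% Triton X-100, 1% formaldehyde, 1 ug/ml Hoechst) and counted on 4× images, and relative viability is the treated-to-vehicle nuclei ratio, as the median of duplicate plates.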

Tosedostat + Tozasertib = compound: CC(C)C[C@@H](C(=O)N[C@H](C(=O)OC1CCCC1)c1ccccc1)[C@H](O)C(=O)NO [Tosedostat] + Cc1cc(Nc2cc(N3CCN(C)CC3)nc(Sc3ccc(NC(=O)C4CC4)cc3)n2)n[nH]1 [Tozasertib] (partner 0.1 µM)
Summary of the method: as §1

Tosedostat + AZD7762 = compound: CC(C)C[C@@H](C(=O)N[C@H](C(=O)OC1CCCC1)c1ccccc1)[C@H](O)C(=O)NO [Tosedostat] + NC(=O)Nc1cc(-c2cccc(F)c2)sc1C(=O)N[C@H]1CCCNC1 [AZD7762] (partner 0.2 µM)
Summary of the method: as §1

[1] = compound: CC1=NN=C(O1)C2=NN=C(C=C2)N3CCC(CC3)OC4=C(C=CC(=C4)F)Cl + Cc1nc(NC(=O)N2CCC[C@H]2C(N)=O)sc1-c1ccnc(C(C)(C)C(F)(F)F)c1 [Alpelisib] (partner 2 µM)
Summary of the method: as §1

Cell Line | relative viability (Tosedostat + OSI-027; first compound 0.02 µM) | relative viability (Tosedostat + OSI-027; first compound 0.06325 µM) | relative viability (Tosedostat + OSI-027; first compound 0.2 µM) | relative viability (Tosedostat + OSI-027; first compound 0.6325 µM) | relative viability (Tosedostat + OSI-027; first compound 2 µM) | relative viability (Tosedostat + Tozasertib; first compound 0.02 µM) | relative viability (Tosedostat + Tozasertib; first compound 0.06325 µM) | relative viability (Tosedostat + Tozasertib; first compound 0.2 µM) | relative viability (Tosedostat + Tozasertib; first compound 0.6325 µM) | relative viability (Tosedostat + Tozasertib; first compound 2 µM) | relative viability (Tosedostat + AZD7762; first compound 0.02 µM) | relative viability (Tosedostat + AZD7762; first compound 0.06325 µM) | relative viability (Tosedostat + AZD7762; first compound 0.2 µM) | relative viability (Tosedostat + AZD7762; first compound 0.6325 µM) | relative viability (Tosedostat + AZD7762; first compound 2 µM) | relative viability ([1]; first compound 0.253 µM) | relative viability ([1]; first compound 0.8 µM) | relative viability ([1]; first compound 2.53 µM) | relative viability ([1]; first compound 8 µM)
NCI-H2342 | 0.627 | 0.708 | 0.632 | 0.576 | 0.599 | 0.489 | 0.537 | 0.522 | 0.496 | 0.491 | 0.512 | 0.599 | 0.446 | 0.41 | 0.432 |  |  |  | 
SK-MES-1 | 0.532 | 0.59 | 0.595 | 0.538 | 0.396 | 1.01 | 0.822 | 0.95 | 0.801 | 0.61 |  |  |  |  |  | 0.786 | 0.953 | 0.859 | 0.871
NCI-H1355 | 0.377 | 0.399 | 0.442 | 0.413 | 0.351 | 0.63 | 0.55 | 0.584 | 0.533 | 0.442 | 0.698 | 0.703 | 0.72 | 0.606 | 0.621 |  |  | 0.78 | 0.734
HCC-366 | 1.15 | 0.806 | 1.01 | 0.643 | 0.594 | 0.113 | 0.113 | 0.0994 | 0.0993 | 0.0727 | 0.291 | 0.34 | 0.428 | 0.361 | 0.485 | 0.205 | 0.212 | 0.284 | 0.323
201T | 0.761 | 0.818 | 0.755 | 0.949 | 0.718 | 0.938 | 1.02 | 1.06 | 1.11 | 0.968 | 0.592 | 0.668 | 0.669 | 0.584 | 0.576 | 0.594 | 0.614 | 0.578 | 0.563
HCC-827 | 0.701 | 0.728 | 0.773 | 0.526 | 0.644 | 0.416 | 0.412 | 0.445 | 0.357 | 0.426 | 0.201 | 0.257 | 0.347 | 0.176 | 0.178 | 0.492 | 0.358 | 0.492 | 0.476
PC-14 | 0.959 | 0.818 | 0.637 | 0.5 | 0.449 | 0.586 | 0.562 | 0.52 | 0.51 | 0.399 | 0.434 | 0.352 | 0.314 | 0.273 | 0.0971 | 0.849 | 0.827 | 0.885 | 0.857
NCI-H2228 | 0.728 | 0.574 | 0.571 | 0.387 | 0.363 | 0.375 | 0.286 | 0.216 | 0.101 | 0.0875 |  |  |  |  |  | 0.684 | 0.545 | 0.923 | 0.479
NCI-H727 | 0.583 | 0.636 |  | 0.492 | 0.419 | 0.586 | 0.535 |  | 0.45 | 0.415 | 0.667 | 0.559 | 0.65 | 0.669 | 0.53 | 0.569 | 0.58 | 0.593 | 0.471
NCI-H1650 | 0.606 | 0.633 | 0.662 | 0.639 | 0.706 | 0.333 | 0.503 | 0.339 | 0.238 | 0.242 |  |  |  |  |  |  |  |  | 
A-427 | 0.437 | 0.548 | 0.534 | 0.484 | 0.406 | 0.217 | 0.196 | 0.185 | 0.162 | 0.152 | 0.787 | 0.804 | 0.773 | 0.682 | 0.698 | 1.05 |  | 1.02 | 0.882
NCI-H650 | 0.611 | 0.5 | 0.454 | 0.455 | 0.364 | 0.839 | 0.78 | 0.684 | 0.602 | 0.471 | 1.32 | 1.05 | 0.904 | 0.851 | 0.725 | 1.17 | 0.948 | 1 | 0.986
NCI-H1792 | 0.71 | 0.68 | 0.752 | 0.729 | 1.08 |  |  |  |  |  | 0.523 | 0.77 | 0.606 | 0.644 | 0.586 | 0.397 | 0.432 | 0.264 | 0.448
NCI-H2009 | 0.696 | 0.605 | 0.498 | 0.4 | 0.367 | 0.821 | 0.765 | 0.697 | 0.647 | 0.607 |  |  |  |  |  | 0.712 | 0.714 | 0.646 | 0.626
Calu-6 |  |  |  |  |  |  |  |  |  |  |  |  |  |  |  | 0.808 | 0.864 | 0.895 | 0.846
NCI-H1975 | 0.822 | 0.743 | 0.708 | 0.552 | 0.424 | 0.955 | 0.749 | 0.916 | 0.575 | 0.471 | 0.768 | 0.776 | 0.7 | 0.654 | 0.608 |  | 0.725 | 0.753 | 0.779
LOU-NH91 | 0.735 | 0.822 | 0.703 | 0.676 | 0.616 | 0.686 | 0.699 | 0.665 | 0.574 | 0.917 | 0.805 | 0.862 | 0.802 | 0.745 | 0.624 |  | 0.649 | 0.713 | 0.726
EMC-BAC-2 | 0.4 | 0.405 | 0.412 | 0.416 | 0.319 | 0.281 | 0.27 | 0.265 | 0.242 | 0.187 | 1.09 | 1.02 | 1.1 | 1.07 | 0.859 | 0.69 | 0.649 | 0.695 | 0.581
LK-2 | 0.174 | 0.214 | 0.239 | 0.219 | 0.199 | 0.17 | 0.208 | 0.165 | 0.162 | 0.162 | 0.459 | 0.475 | 0.381 | 0.354 | 0.617 | 1.03 | 1.01 | 1.17 | 1.23
